Patent US8802694B2, “3,6-diazabicyclo[3.1.1]heptanes as neuronal nicotinic acetycholine receptor ligands” (Targacept, Inc., priority 2009, dated 2014)
pKi: −log10 of the molar value. Where two headings read alike, the source gives them in different places.

What was measured:
Rat α4β2 = target: T1, Rat α4β2 (Rattus norvegicus, UniProt P09483+P12390); test: Competition binding to rat α4β2 receptors in rat cortical membranes; conditions: rat cortex membranes
T1 construct: Rat cortices were obtained from Analytical Biological Services; tissue Analytical Biological Services, Incorporated (ABS, Wilmington, Del.); host or cells: rat cortex (female Sprague-Dawley)
Protocol: Preparation of membranes from rat tissues. Rat cortices were obtained from Analytical Biological Services, Incorporated (ABS, Wilmington, Del.). Tissues were dissected from female Sprague-Dawley rats, frozen and shipped on dry ice. Tissues were stored at −20° C. until needed for membrane preparation. […] The resulting homogenate was centrifuged at 40,000 g for 20 minutes at 4° C. and the resulting pellet was resuspended in 20 volumes of ice-cold water. After 60-minute incubation at 4° C., a new pellet was collected by centrifugation at 40,000 g for 20 minutes at 4° C. The final pellet was resuspended in preparative buffer and stored at −20° C. On the day of the assay, tissue was thawed, centrifuged at 40,000 g for 20 minutes and then resuspended in PBS (Dulbecco's Phosphate Buffered Saline, Life Technologies, pH 7.4) to a final concentration of 2-3 mg protein/mL. Protein concentrations were determined using the Pierce BCA Protein Assay kit (Pierce Biotechnology, Rockford, Ill.), with bovine serum albumin as the standard.
Competition binding to receptors in membrane preparations. […] In brief, membranes were reconstituted from frozen stocks (approximately 0.2 mg protein) and incubated for 2 h on ice in […] assay buffer (PBS) in the presence of competitor compound (0.001 nM to […]) and radioligand. [^3H]-nicotine (L-(−)-[N-methyl-3H]-nicotine, 69.5 Ci/mmol, Perkin-Elmer Life Sciences) was used for human α4β2 binding studies. [^3H]-epibatidine (52 Ci/mmol, Perkin-Elmer Life Sciences) was used for binding studies at the other receptor subtypes. […] Filters were washed 3 times and the radioactivity retained was determined by liquid scintillation counting.
Binding data analysis. Binding data were expressed as percent total control binding. Replicates for each point were averaged and plotted against the log of drug concentration.

Human α4β2 = target: T2, Human α4β2 (Homo sapiens, UniProt P17787+P43681); test: Competition binding to human α4β2 receptors in membranes of SH-EP1/human α4β2 cells ([3H]-nicotine); conditions: membrane competition binding
T2 construct: host or cells: SH-EP1

α6β3β4α5 = target: T3, α6β3β4α5 (Homo sapiens, UniProt P30926+Q15825); test: Competition binding to α6β3β4α5 receptors in membranes of SH-EP1/α6β3β4α5 cells ([3H]-epibatidine); conditions: membrane competition binding
T3 construct: host or cells: SH-EP1

| SMILES | pKi (Human α4β2; Human α4β2 Ki) | pKi (Human α4β2; read-out: Human α4β2 Ki) | other results |
| --- | --- | --- | --- |
| O=C(c1ccc(Cl)o1)N1C2CNCC1C2 [6-(2-chlorofuran-5-yl)carbonyl-3,6-diazabicyclo[3.1.1]heptane] | 7.42 | – | pKi (Rat α4β2; Rat α4β2 Ki): 7.36 |
| Cn1c(C(=O)N2C3CNCC2C3)cc2ccccc21 | – | 5.54 | – |
| Cc1nocc1C(=O)N1CC2CC(C1)N2 | 7.28 | – | pKi (Rat α4β2; Rat α4β2 Ki): 7.22 |
| CC1(C)CC(C(=O)N2CC3CC(C2)N3)C1 | 7.16 | – | pKi (Rat α4β2; read-out: Rat α4β2 Ki): 6.28 |
| COCCC(=O)N1CC2CC(C1)N2 [3-(2-methoxyethyl)carbonyl-3,6-diazabicyclo[3.1.1]heptane] | 7.14 | – | – |
| CCC1(CC)CC1C(=O)N1CC2CC(C1)N2 (stereo not drawn) | 7.15 | – | pKi (α6β3β4α5; read-out: α6β3β4α5 Ki): 6.33; pKi (Rat α4β2; Rat α4β2 Ki): 7.16 |
| O=C([C@@H]1C[C@H]2C=C[C@H]1C2)N1C2CNCC1C2 | – | 6.52 | pKi (α6β3β4α5; read-out: α6β3β4α5 Ki): 5.89 |
| O=C(CSc1ccc(Cl)c(Cl)c1)N1CC2CC(C1)N2 | 8.64 | – | pKi (α6β3β4α5; α6β3β4α5 Ki): 7.00; pKi (Rat α4β2; Rat α4β2 Ki): 7.80 |
| CC1CC1C(=O)N1C2CNCC1C2 (stereo not drawn) | 7.34 | – | pKi (Rat α4β2; Rat α4β2 Ki): 7.47 |
| O=C(C1CCCC1)N1C2CNCC1C2 | – | 6.38 | – |
| O=C(NCc1ccc(Cl)cc1)N1C2CNCC1C2 | – | 5.19 | pKi (α6β3β4α5; read-out: α6β3β4α5 Ki): 5.47 |
| O=C(COc1ccc(F)cc1)N1CC2CC(C1)N2 | – | 6.44 | – |
| O=C(c1cc(Cl)cc(Cl)c1)N1C2CNCC1C2 | – | 5.92 | pKi (α6β3β4α5; read-out: α6β3β4α5 Ki): 4.85 |
| O=C(c1ccc(Br)o1)N1C2CNCC1C2 [6-(2-bromorofuran-5-yl)carbonyl-3,6-diazabicyclo[3.1.1]heptane] | 7.18 | – | pKi (Rat α4β2; read-out: Rat α4β2 Ki): 6.59 |
| O=C([C@H]1CCCO1)N1C2CNCC1C2 | – | 6.41 | pKi (α6β3β4α5; read-out: α6β3β4α5 Ki): 5.96 |
| O=C(C1CCOCC1)N1C2CNCC1C2 | – | 5.70 | – |
| O=C(C1CCC1)N1CC2CC(C1)N2 | 7.55 | – | pKi (Rat α4β2; Rat α4β2 Ki): 8.17 |
| O=C(CCOc1ccc(F)cc1)N1CC2CC(C1)N2 | – | 6.18 | – |
| O=C(C1C2CCCCC21)N1C2CNCC1C2 (stereo not drawn) | – | 6.51 | pKi (α6β3β4α5; read-out: α6β3β4α5 Ki): 5.19 |
| CCC(C)C(=O)N1C2CNCC1C2 (stereo not drawn) | – | 6.54 | – |
| O=C([C@@H]1CCCO1)N1C2CNCC1C2 | – | 6.12 | – |
| O=C([C@H]1CCCO1)N1CC2CC(C1)N2 | – | 6.40 | – |
| O=C(C1CCOC1)N1CC2CC(C1)N2 (stereo not drawn) [3-(tetrahydrofuran-3-yl)carbonyl-3,6-diazabicyclo[3.1.1]heptane] | – | 6.57 | – |
| O=C(COc1ccc(F)cc1)N1C2CNCC1C2 | – | 5.89 | – |
| CC(C)CC(=O)N1C2CNCC1C2 | – | 6.92 | pKi (Rat α4β2; Rat α4β2 Ki): 7.23 |

| SMILES | pKi (Human α4β2; Human α4β2 Ki) | pKi (Human α4β2; read-out: Human α4β2 Ki) | other results |
| --- | --- | --- | --- |
| CO[C@H](C(=O)N1CC2CC(C1)N2)c1ccccc1 | – | 6.02 | – |
| CC(C)OC(=O)N1CC2CC(C1)N2 [3-isopropoxycarbonyl-3,6-diazabicyclo[3.1.1]heptane] | – | 6.89 | – |
| O=C(NCc1ccc(Cl)cc1Cl)N1C2CNCC1C2 | – | 5.96 | pKi (α6β3β4α5; read-out: α6β3β4α5 Ki): 4.68 |
| O=C(C1CC=CC1)N1CC2CC(C1)N2 | 7.43 | – | pKi (Rat α4β2; Rat α4β2 Ki): 6.59 |
| O=C(c1ccnc(Cl)c1)N1C2CNCC1C2 | – | 6.01 | – |
| CCC1(CC)CC1C(=O)N1C2CNCC1C2 (stereo not drawn) | – | 6.07 | pKi (α6β3β4α5; read-out: α6β3β4α5 Ki): 5.36 |
| Cn1c(C(=O)N2CC3CC(C2)N3)cc2ccccc21 | – | 6.38 | – |
| O=C(C1CC12CCCC2)N1C2CNCC1C2 (stereo not drawn) | – | 6.55 | pKi (α6β3β4α5; read-out: α6β3β4α5 Ki): 6.21 |
| O=C(C1CNC1)N1CC2CC(C1)N2 | – | 6.37 | – |
| CC1(C)C(C(=O)N2C3CNCC2C3)C1(C)C | – | 4.96 | – |
| O=C(CC1CC1)N1CC2CC(C1)N2 | 7.19 | – | pKi (Rat α4β2; Rat α4β2 Ki): 7.77 |
| O=C(NCc1ccc(Cl)c(Cl)c1)N1C2CNCC1C2 | – | 5.51 | pKi (α6β3β4α5; read-out: α6β3β4α5 Ki): 5.23 |
| O=C(C1CC=CCC1)N1CC2CC(C1)N2 (stereo not drawn) | – | 6.92 | pKi (Rat α4β2; read-out: Rat α4β2 Ki): 6.41 |
| C[C@@H]1C[C@@H]1C(=O)N1CC2CC(C1)N2 | – | 7.66 | – |
| O=C(C1C2C3CCC(C3)C12)N1C2CNCC1C2 (stereo not drawn) | – | 5.72 | pKi (α6β3β4α5; read-out: α6β3β4α5 Ki): 4.00 |
| C[C@H]1C[C@@H]1C(=O)N1C2CNCC1C2 | – | 6.68 | pKi (α6β3β4α5; read-out: α6β3β4α5 Ki): 4.51 |
| CCCOC(=O)N1CC2CC(C1)N2 [3-propoxycarbonyl-3,6-diazabicyclo[3.1.1]heptane] | 7.62 | – | – |
| O=C(CC1C=CCC1)N1C2CNCC1C2 (stereo not drawn) | – | 6.82 | pKi (Rat α4β2; Rat α4β2 Ki): 7.15 |
| O=C(CC1CCOCC1)N1CC2CC(C1)N2 | – | 5.55 | – |
| CC(C)CC(=O)N1CC2CC(C1)N2 | 7.47 | – | pKi (Rat α4β2; Rat α4β2 Ki): 7.15 |
| O=C(C1CC=CC1)N1C2CNCC1C2 | – | 6.09 | – |
| O=C([C@H]1C[C@@H]1F)N1C2CNCC1C2 | 8.66 | – | pKi (Rat α4β2; Rat α4β2 Ki): 9.00 |
| CO[C@H](C(=O)N1C2CNCC1C2)c1ccccc1 | – | 5.15 | – |
| O=C(C1CC2CCC1C2)N1CC2CC(C1)N2 (stereo not drawn) | 7.22 | – | pKi (Rat α4β2; read-out: Rat α4β2 Ki): 6.66 |
